Patent US7780997B2, “Pharmaceutically active extracts of vitex leucoxylon, a process of extracting the same and a method of treating diabetes and inflammatory diseases therewith” (Laila Impex, priority 2005, dated 2010)

Experiments:
Albino wistar rats [1] = experiment: Hypoglycemic activity: inhibition of sucrose-induced raise in serum glucose levels (SGL); assay type: in vivo, rat; conditions: for Increased SGL (mean ± SE): 20 mL/kg of 20% sucrose after 30 min, blood one hour after treatment, rats; for % of inhibition (increase in serum glucose levels vs control): sucrose-loaded rats
Experimental: Hypoglycemic activity: Hypoglycemic activity was tested by the inhibition of sucrose-induced raise in serum glucose levels (SGL), by the V. leucoxylon extracts in Albino wistar rats. The procedure involves fasting the rats for overnight at ad libitum water, numbered weighed and randomly divided into groups of three animals each. Prior to treatment blood samples were drawn from sinus orbital plexus of all animals using heparin coated glass capillaries under mild ether anesthesia. The blood samples were tested for serum glucose levels using enzymatic GOD/POD method. Optical densities were measured at 500 nm, SGL was calculated as follows. SGL=(test OD/Standard OD)×100 and the results were expressed in mg/dL. All the groups were treated orally with corresponding test substances, standard, vehicle (5% gum acacia). After 30 minutes, all animals were given 20 mL/kg of 20% sucrose solution orally using gastric tube. One hour after treatment, blood samples were drawn again under mild ether anesthesia and tested for serum glucose levels in a similar procedure as described above for initial serum glucose estimation. The data was subjected to statistical treatment using t-test and inhibitory rate was calculated by comparing mean increase in serum glucose levels of control and red groups.

Albino wistar rats [2] = experiment: Anti-inflammatory activity (Carrageenin induced paw edema method); assay type: in vivo; conditions: Rattus norvegicus, oral dose 25 mg/Kg, 3 h after carrageenin
Experimental: Anti-inflammatory activity (Carrageenin induced paw edema method): Prior to the experiment all the animals (Albino wistar rats of either sex weighing between 180-300 g) fasted at ad libitum water and were weighed, numbered and randomly divided into groups, each containing 3 animals. Initial paw volumes were measured using plethesmometer and noted. All the groups were treated with corresponding test substance orally using gastric tube. Control group was treated with 10 mL/Kg vehicle (0.5%, carboxymethyl cellulose sodium salt). After 30 minutes, all the animals were injected subcutaneously at subplantar region of left hind paw 1% carrageenin 0.1 mL using hypodermic needle. All the animals were administered water 20 mL/Kg body weight and kept devoid of water for 3 h (maintained uniform hydration). After 3 h, paw volumes of all the animals were measured twice and average volume from two measurements were recorded. The % of inhibition of paw edema was calculated by comparing paw edema of test substance treated groups with that of control groups.

C[C@H]1[C@H](C)CC[C@]2(C(=O)O)CC[C@]3(C)C(=CC[C@@H]4[C@@]5(C)C[C@@H](O)[C@H](O)C(C)(C)[C@@H]5CC[C@]43C)[C@H]12 [Corosolic acid] was tested, and the “Increased SGL (mean ± SE)” value (Albino wistar rats [1]; oral dose 1 mg/Kg) was 27.72 ± 3.27 mg/dL and the “% of inhibition (increase in serum glucose levels vs control)” value (Albino wistar rats [1]; oral dose 1 mg/Kg) was 9.78%.

For O=C(O)Cc1ccccc1Nc1c(Cl)cccc1Cl [Diclofenac sodium], the inhibition at 25 mg/kg (Albino wistar rats [2]) was 63.1%.

With COc1ccc(Cl)cc1C(=O)NCCc1ccc(S(=O)(=O)NC(=O)NC2CCCCC2)cc1 [Glibenclamide] the “Increased SGL (mean ± SE)” value (Albino wistar rats [1]; oral dose 25 mg/Kg) was 6.12 ± 4.32 mg/dL and the “% of inhibition (increase in serum glucose levels vs control)” value (Albino wistar rats [1]; oral dose 25 mg/Kg) was 80.0%.
